One experiment deals with S. aureus (SA RN450). In words: Antibacterial MIC, gram positive. It is filed as cell-based. The conditions noted are these: CLSI methodology, 35° C., 18-24 hours.
In a further experiment the test system is SMN2 mRNA. The experiment can be described thus: In vitro cell-free splicing assay for inclusion of exon 7. It is filed as biochemical. The conditions noted are these: HeLa cell nuclear extract, 30° C., 3 hours. The procedure: The following example illustrates how tetracycline compound of the invention are active in an in vitro cell-free assay for the inclusion of exon 7 in […] mRNA. SMN1 and SMN2 pre-mRNA were prepared by in vitro transcription using T7 RNA polymerase of minigene templates that include exon 6, a truncated portion of intron 6, exon 7, intron 7 and a portion of exon 8 in the presence of ^32P-UTP. Labeled RNA was purified on a denaturing polyacrylamide gel followed by phenol extraction and ethanol precipitation of the RNA.
In vitro cell-free splicing of SMN1 and SMN2 transcripts was carried out in a 10 μl reaction volume at 30° C. for 3 hours. The reactions contained 10 fmol of labeled pre-mRNA, 30% (3 VI) HeLa cell nuclear extract (in 20 mM HEPES, pH 7.4, 20% (v/v) glycerol, 0.1M KC1, 0.2 mM EDTA), 1.3% (w/v) polyvinyl alcohol, 1.56 mM MgCl2, 32 mM HEPES, pH 7.4, 0.5 mM ATP, 20 mM creatine phosphate and either 2 μl of test compound (in 20 mM HEPES, pH 7.4, 0.1M KC1, 0.2 mM EDTA) or buffer alone. Following incubation, 200 μl of a solution containing 0.3M NaAc and 0.2% SDS was added to the reaction. Proteins were removed by extraction with an equal volume of phenol and RNA was precipitated with 2.5 volumes of ethanol. RNA was resuspended in formamide sample buffer and separated on a 9% urea-denaturing polyacrylamide gel. Quantitation of splicing was based on phosphorimage analysis (Fujix BAS2000 or Fujifilm FLA-5100). In this assay, percentage exon 7 inclusion averages 12% for the unmutated SMN1 mRNA and 4% for the SMN2 mRNA.
The in vitro activities for exon 7 splicing are expressed as the Emax (the maximum percentage exon 7 inclusion observed) and Cmax (the lowest compound concentration at which the maximum inclusion occurs in μM). For Emax, percentage inclusion values of less than 10% are indicated by “*”, values of 10-20% are indicated by “**”, and values greater than 20% are indicated by “***”. For Cmax data, concentrations of greater than 40 μM are indicated by “*”, concentrations between 40 and 10 μM are represented by “**” and concentrations of less than 10 μM are represented by “***”.

For a further experiment, the system named is E. coli (EC D1-209). In words: Antibacterial MIC, gram negative. It is filed as cell-based. The conditions noted are these: CLSI methodology, 35° C., 18-24 hours.

`CN(C)C1C(O)=C(C(N)=O)C(=O)C2(O)C(O)=C3C(=O)c4c(O)ccc(C(=O)CNCc5cccn5C)c4CC3CC12` (centres unmarked) [CE]: the “MIC Gram Positive (SA RN450)” value with S. aureus (SA RN450) is on record as “*** (Good antibacterial activity (e.g., less than about 4 μg/mL))”. In addition, in the experiment with SMN2 mRNA, the “Cmax (lowest compound concentration at which the maximum exon 7 inclusion occurs)” value (from here on “Cmax”) is “*** (concentrations of less than 10 μM)” and the “Emax (maximum percentage exon 7 inclusion observed)” value is given as “** (values of 10-20%)”. The “MIC Gram Negative (EC D1-209)” value against E. coli (EC D1-209) is on record as “* (weak antibacterial activity (greater than about 8 μg/mL))”.
Turning to `CN(C)CCCCNC(=O)c1cccc(-c2ccc(O)c3c2CC2CC4C(N(C)C)C(O)=C(C(N)=O)C(=O)C4(O)C(O)=C2C3=O)c1` (centres unmarked) [CL], in the experiment with S. aureus (SA RN450), the “MIC Gram Positive (SA RN450)” value was “** (modest antibacterial activity (between about 4 and 8 μg/mL))”. In addition, in the experiment with SMN2 mRNA, the “Cmax” value is “** (concentrations between 40 and 10 μM)”; the “Emax (maximum percentage exon 7 inclusion observed)” value is on record as “*** (values greater than 20%)”. The “MIC Gram Negative (EC D1-209)” value against E. coli (EC D1-209) was “* (weak antibacterial activity (greater than about 8 μg/mL))”.
For `CC(=O)NCCNC(=O)c1cccc(-c2ccc(O)c3c2CC2CC4C(N(C)C)C(O)=C(C(N)=O)C(=O)C4(O)C(O)=C2C3=O)c1` (centres unmarked) [S], the “MIC Gram Positive (SA RN450)” value against S. aureus (SA RN450) is “*** (Good antibacterial activity (e.g., less than about 4 μg/mL))”. Also, in the experiment on SMN2 mRNA, the “Cmax” value is listed as “* (concentrations of greater than 40 μM)” and the “Emax (maximum percentage exon 7 inclusion observed)” value is on record as “** (values of 10-20%)”. In addition, the “MIC Gram Negative (EC D1-209)” value in the experiment on E. coli (EC D1-209) was “* (weak antibacterial activity (greater than about 8 μg/mL))”.
As for `CN(C)CCNC(=O)c1ccc(O)c2c1CC1CC3C(N(C)C)C(O)=C(C(N)=O)C(=O)C3(O)C(O)=C1C2=O` (centres unmarked) [AH], in the experiment on S. aureus (SA RN450), the “MIC Gram Positive (SA RN450)” value is on record as “* (weak antibacterial activity (greater than about 8 μg/mL))”. For the same compound, in the experiment with SMN2 mRNA, the “Cmax” value was “** (concentrations between 40 and 10 μM)”; the “Emax (maximum percentage exon 7 inclusion observed)” value is “* (percentage inclusion values of less than 10%)”. The “MIC Gram Negative (EC D1-209)” value with E. coli (EC D1-209) is listed as “* (weak antibacterial activity (greater than about 8 μg/mL))”.
As for `CNCCNC(=O)c1cccc(-c2ccc(O)c3c2CC2CC4C(N(C)C)C(O)=C(C(N)=O)C(=O)C4(O)C(O)=C2C3=O)c1` (centres unmarked) [M], in the experiment on S. aureus (SA RN450), the “MIC Gram Positive (SA RN450)” value was “** (modest antibacterial activity (between about 4 and 8 μg/mL))”. Moreover, in the experiment on SMN2 mRNA, the “Cmax” value was “** (concentrations between 40 and 10 μM)”; the “Emax (maximum percentage exon 7 inclusion observed)” value is listed as “*** (values greater than 20%)”. In addition, the “MIC Gram Negative (EC D1-209)” value in the experiment with E. coli (EC D1-209) is on record as “* (weak antibacterial activity (greater than about 8 μg/mL))”.
Take `CC(=O)N1CCN(CC(=O)c2ccc(O)c3c2CC2CC4C(N(C)C)C(O)=C(C(N)=O)C(=O)C4(O)C(O)=C2C3=O)CC1` (centres unmarked) [BS]: in the experiment on S. aureus (SA RN450), the “MIC Gram Positive (SA RN450)” value is listed as “*** (Good antibacterial activity (e.g., less than about 4 μg/mL))”. For the same compound, in the experiment on SMN2 mRNA, the “Cmax” value is given as “* (concentrations of greater than 40 μM)” and the “Emax (maximum percentage exon 7 inclusion observed)” value is “** (values of 10-20%)”. Further, the “MIC Gram Negative (EC D1-209)” value against E. coli (EC D1-209) was “* (weak antibacterial activity (greater than about 8 μg/mL))”.
With `CN(Cc1cccnc1)Cc1cccc(-c2ccc(O)c3c2CC2CC4C(N(C)C)C(O)=C(C(N)=O)C(=O)C4(O)C(O)=C2C3=O)c1` (centres unmarked) [BJ], in the experiment on S. aureus (SA RN450), the “MIC Gram Positive (SA RN450)” value is “*** (Good antibacterial activity (e.g., less than about 4 μg/mL))”. Moreover, in the experiment with SMN2 mRNA, the “Cmax” value is on record as “*** (concentrations of less than 10 μM)” and the “Emax (maximum percentage exon 7 inclusion observed)” value is on record as “** (values of 10-20%)”. The “MIC Gram Negative (EC D1-209)” value in the experiment with E. coli (EC D1-209) is recorded as “* (weak antibacterial activity (greater than about 8 μg/mL))”.
As for `COCCNCC(=O)c1ccc(O)c2c1CC1CC3C(N(C)C)C(O)=C(C(N)=O)C(=O)C3(O)C(O)=C1C2=O` (centres unmarked) [AG], the “MIC Gram Positive (SA RN450)” value with S. aureus (SA RN450) is “** (modest antibacterial activity (between about 4 and 8 μg/mL))”. Moreover, in the experiment with SMN2 mRNA, the “Cmax” value is “** (concentrations between 40 and 10 μM)”; the “Emax (maximum percentage exon 7 inclusion observed)” value is recorded as “* (percentage inclusion values of less than 10%)”. The “MIC Gram Negative (EC D1-209)” value with E. coli (EC D1-209) is given as “* (weak antibacterial activity (greater than about 8 μg/mL))”.
In the case of `CN(CCC#N)Cc1cccc(-c2ccc(O)c3c2CC2CC4C(N(C)C)C(O)=C(C(N)=O)C(=O)C4(O)C(O)=C2C3=O)c1` (centres unmarked) [BL], the “MIC Gram Positive (SA RN450)” value against S. aureus (SA RN450) is reported as “*** (Good antibacterial activity (e.g., less than about 4 μg/mL))”. In the experiment with SMN2 mRNA, the “Cmax” value is on record as “* (concentrations of greater than 40 μM)” and the “Emax (maximum percentage exon 7 inclusion observed)” value is listed as “** (values of 10-20%)”. Moreover, the “MIC Gram Negative (EC D1-209)” value with E. coli (EC D1-209) is “* (weak antibacterial activity (greater than about 8 μg/mL))”.
As for `CN(C)CCNC(=O)c1ccc(-c2ccc(O)c3c2CC2CC4C(N(C)C)C(O)=C(C(N)=O)C(=O)C4(O)C(O)=C2C3=O)cc1` (centres unmarked) [AD], the “MIC Gram Positive (SA RN450)” value in the experiment with S. aureus (SA RN450) was “*** (Good antibacterial activity (e.g., less than about 4 μg/mL))”. In the experiment with E. coli (EC D1-209), the “MIC Gram Negative (EC D1-209)” value was “* (weak antibacterial activity (greater than about 8 μg/mL))”.
With `CN(C)CC(=O)N1CC=C(c2ccc(O)c3c2CC2CC4C(N(C)C)C(O)=C(C(N)=O)C(=O)C4(O)C(O)=C2C3=O)CC1` (centres unmarked) [Compound AL], the “MIC Gram Positive (SA RN450)” value in the experiment with S. aureus (SA RN450) is reported as “*** (Good antibacterial activity (e.g., less than about 4 μg/mL))”. Also, the “MIC Gram Negative (EC D1-209)” value against E. coli (EC D1-209) is “* (weak antibacterial activity (greater than about 8 μg/mL))”.
For the compound `CCOC(=O)N1CCN(CC(=O)c2ccc(O)c3c2CC2CC4C(N(C)C)C(O)=C(C(N)=O)C(=O)C4(O)C(O)=C2C3=O)CC1` (centres unmarked) [BR], in the experiment on S. aureus (SA RN450), the “MIC Gram Positive (SA RN450)” value was “*** (Good antibacterial activity (e.g., less than about 4 μg/mL))”. Moreover, the “MIC Gram Negative (EC D1-209)” value against E. coli (EC D1-209) is listed as “* (weak antibacterial activity (greater than about 8 μg/mL))”.
Regarding `CN(C)c1cc(-c2cccc(C(N)=O)c2)c(O)c2c1CC1CC3C(N(C)C)C(O)=C(C(N)=O)C(=O)C3(O)C(O)=C1C2=O` (centres unmarked) [CD], the “MIC Gram Positive (SA RN450)” value with S. aureus (SA RN450) is “** (modest antibacterial activity (between about 4 and 8 μg/mL))”. The “MIC Gram Negative (EC D1-209)” value against E. coli (EC D1-209) is reported as “* (weak antibacterial activity (greater than about 8 μg/mL))”.
As for `CCCCNC(=O)c1cccc(-c2ccc(O)c3c2CC2CC4C(N(C)C)C(O)=C(C(N)=O)C(=O)C4(O)C(O)=C2C3=O)c1` (centres unmarked) [F], the “MIC Gram Positive (SA RN450)” value with S. aureus (SA RN450) is “*** (Good antibacterial activity (e.g., less than about 4 μg/mL))”. Further, the “MIC Gram Negative (EC D1-209)” value against E. coli (EC D1-209) is given as “* (weak antibacterial activity (greater than about 8 μg/mL))”.
Turning to `CN(C)CCN(C)C(=O)c1cccc(-c2ccc(O)c3c2CC2CC4C(N(C)C)C(O)=C(C(N)=O)C(=O)C4(O)C(O)=C2C3=O)c1` (centres unmarked) [R], the “MIC Gram Positive (SA RN450)” value with S. aureus (SA RN450) was “*** (Good antibacterial activity (e.g., less than about 4 μg/mL))”. Besides, the “MIC Gram Negative (EC D1-209)” value in the experiment with E. coli (EC D1-209) is given as “* (weak antibacterial activity (greater than about 8 μg/mL))”.
Regarding `CN(C)C1C(O)=C(C(N)=O)C(=O)C2(O)C(O)=C3C(=O)c4c(O)ccc(-c5cnc6ccccc6c5)c4CC3CC12` (centres unmarked) [G], in the experiment with S. aureus (SA RN450), the “MIC Gram Positive (SA RN450)” value is recorded as “*** (Good antibacterial activity (e.g., less than about 4 μg/mL))”. The “MIC Gram Negative (EC D1-209)” value against E. coli (EC D1-209) is “* (weak antibacterial activity (greater than about 8 μg/mL))”.

The values above are taken from patent US7935687B2, “Methods for treating spinal muscular atrophy using tetracycline compounds” (Paratek Pharmaceuticals, Inc., priority 2007, dated 2011).
